Among the data in US12252484B2, “Pyrazolopyridine compounds for the treatment of autoimmune disease” (Hoffmann-La Roche Inc., priority 2018, dated 2025) are IC50 values, retold here.

The assay addresses T1, human TLR7 (Homo sapiens, UniProt Q9NYK1).
T1 sequence (Q9NYK1 27-1049): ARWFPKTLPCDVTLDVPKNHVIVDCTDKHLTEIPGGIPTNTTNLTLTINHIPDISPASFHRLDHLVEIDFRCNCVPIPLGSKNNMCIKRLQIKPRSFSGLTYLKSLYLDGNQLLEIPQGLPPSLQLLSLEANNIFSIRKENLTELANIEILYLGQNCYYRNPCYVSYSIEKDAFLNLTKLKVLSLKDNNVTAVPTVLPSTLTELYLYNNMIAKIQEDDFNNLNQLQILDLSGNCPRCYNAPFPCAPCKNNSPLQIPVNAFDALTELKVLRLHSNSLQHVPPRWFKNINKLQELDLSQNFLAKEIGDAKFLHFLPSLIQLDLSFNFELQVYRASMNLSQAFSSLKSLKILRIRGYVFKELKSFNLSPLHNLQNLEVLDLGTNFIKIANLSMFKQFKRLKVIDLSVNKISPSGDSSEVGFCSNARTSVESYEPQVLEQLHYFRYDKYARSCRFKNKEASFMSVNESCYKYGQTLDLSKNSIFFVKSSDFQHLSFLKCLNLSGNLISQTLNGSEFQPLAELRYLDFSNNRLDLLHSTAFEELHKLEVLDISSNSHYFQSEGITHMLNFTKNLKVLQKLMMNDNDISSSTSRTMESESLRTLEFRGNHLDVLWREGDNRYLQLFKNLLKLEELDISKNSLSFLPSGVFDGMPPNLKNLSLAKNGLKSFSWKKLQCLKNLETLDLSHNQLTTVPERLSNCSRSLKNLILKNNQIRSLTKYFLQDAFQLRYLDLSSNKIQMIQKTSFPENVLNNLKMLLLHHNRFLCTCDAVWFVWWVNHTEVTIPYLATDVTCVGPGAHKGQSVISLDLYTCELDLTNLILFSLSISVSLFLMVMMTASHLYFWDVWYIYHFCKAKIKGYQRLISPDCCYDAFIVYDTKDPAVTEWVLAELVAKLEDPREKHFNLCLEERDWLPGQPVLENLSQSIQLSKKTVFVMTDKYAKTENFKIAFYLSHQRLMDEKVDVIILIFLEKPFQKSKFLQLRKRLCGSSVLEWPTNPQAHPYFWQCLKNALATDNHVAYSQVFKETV
The experiment in a line: HEK293-Blue-hTLR-7 cells assay (SEAP reporter, R848 stimulation). The class given is cell-based. The following applies: HEK293-Blue-hTLR-7 cells, R848 ligand, 20 hrs incubation; read-out: TLR7 IC50. How it is done: The following tests were carried out in order to determine the activity of the compounds of formula (I) in HEK293-Blue-hTLR-7/8/9 cells assay.
HEK293-Blue-hTLR-7 Cells Assay:
A stable HEK293-Blue-hTLR-7 cell line was purchased from InvivoGen (Cat. #: hkb-htlr7, San Diego, California, USA). These cells were originally designed for studying the stimulation of human TLR7 by monitoring the activation of NF-κB. A SEAP (secreted embryonic alkaline phosphatase) reporter gene was placed under the control of the IFN-β minimal promoter fused to five NF-κB and AP-1-binding sites. The SEAP was induced by activating NF-κB and AP-1 via stimulating HEK-Blue hTLR7 cells with TLR7 ligands. Therefore the reporter expression was declined by TLR7 antagonist under the stimulation of a ligand, such as R848 (Resiquimod), for incubation of 20 hrs. The cell culture supernatant SEAP reporter activity was determined using QUANTI-Blue™ kit (Cat. #: rep-qb1, Invivogen, San Diego, Ca, USA) at a wavelength of 640 nm, a detection medium that turns purple or blue in the presence of alkaline phosphatase.
HEK293-Blue-hTLR7 cells were incubated at a density of 250,000˜450,000 cells/mL in a volume of 170 μL in a 96-well plate in Dulbecco's Modified Eagle's medium (DMEM) containing 4.5 g/L glucose, 50 U/mL penicillin, […], […], 2 mM L-glutamine, 10% (v/v) heat-inactivated fetal bovine serum with addition of 20 μL test compound in a serial dilution in the presence of final DMSO at 1% and 10 μL of 20 uM R848 in above DMEM, perform incubation under 37° C. in a CO2 incubator for 20 hrs. Then 20 μL of the supernatant from each well was incubated with 180 μL Quanti-blue substrate solution at 37° C. for 2 hrs and the absorbance was read at 620˜655 nm using a spectrophotometer. The signalling pathway that TLR7 activation leads to downstream NF-κB activation has been widely accepted, and therefore similar reporter assay was modified for evaluating TLR7 antagonist.

One may read the IC50 as the concentration needed to halve the response being measured. For `C[C@@H]1CN(c2ccc(C#N)n3nccc23)C[C@H](C(=O)NC2C3CCCC2CNC3)O1` (stereo partly drawn) [Example 37, (2R,6R)-N-(3-azabicyclo[3.3.1]nonan-9-yl)-4-(7-cyanopyrazolo[1,5-a]pyridin-4-yl)-6-methyl-morpholine-2-carboxamide], the IC50 is 9 nM.
In the case of `C[C@H]1C[C@@H](N)CN(c2ccc(C#N)n3nccc23)C1` [Example 43, 4-[(3R,5S)-3-amino-5-methyl-1-piperidyl]pyrazolo[1,5-a]pyridine-7-carbonitrile] it was 34 nM; in that of `C[C@@H]1CN(c2ccc(C#N)n3nccc23)C[C@H](C(=O)NCC(C)(C)CN)O1` [Example 39, (2R,6R)-N-(3-amino-2,2-dimethyl-propyl)-4-(7-cyanopyrazolo[1,5-a]pyridin-4-yl)-6-methyl-morpholine-2-carboxamide], 30 nM.
Next, `C[C@@H]1CN(c2ccc(C#N)n3nccc23)C[C@H](C(=O)NC(C)(C)CN)O1` [Example 41, (2R,6R)-N-(2-amino-1,1-dimethyl-ethyl)-4-(7-cyanopyrazolo[1,5-a]pyridin-4-yl)-6-methyl-morpholine-2-carboxamide]: 46 nM; `C[C@H]1C[C@@H](NCC#N)CN(c2ccc(C#N)n3nccc23)C1` [Example 46, 4-[(3R,5S)-3-(cyanomethylamino)-5-methyl-1-piperidyl]pyrazolo[1,5-a]pyridine-7-carbonitrile]: 170 nM.
In the case of `C[C@@H]1CN(c2ccc(C#N)n3nccc23)C[C@H](C(=O)NC2CN(C)CC23CC3)O1` (stereo partly drawn) [Example 32, (2R,6R)-4-(7-cyanopyrazolo[1,5-a]pyridin-4-yl)-6-methyl-N-(5-methyl-5-azaspiro[2.4]heptan-7-yl)morpholine-2-carboxamide] it was 31 nM; in that of `C[C@@H]1CN(c2ccc(C#N)n3nccc23)C[C@H](C(=O)NCC2CCNC2)O1` (stereo partly drawn) [Example 40, (2R,6R)-4-(7-cyanopyrazolo[1,5-a]pyridin-4-yl)-6-methyl-N-(pyrrolidin-3-ylmethyl)morpholine-2-carboxamide], 210 nM.
Regarding `C[C@@H]1CN(c2ccc(C#N)n3nccc23)C[C@H](C(=O)NCC2CNCC2(F)F)O1` (stereo partly drawn) [Example 18, (2R,6R)-4-(7-cyanopyrazolo[1,5-a]pyridin-4-yl)-N-[(4,4-difluoropyrrolidin-3-yl)methyl]-6-methyl-morpholine-2-carboxamide], the IC50 stood at 55 nM.
For the compound `C[C@@H]1CN(c2ccc(C#N)n3nccc23)C[C@H](C(=O)N2CC(N)C2)O1` [Example 8, 4-[(2R,6R)-2-(3-aminoazetidine-1-carbonyl)-6-methyl-morpholin-4-yl]pyrazolo[1,5a]pyridine-7-carbonitrile], the IC50 stood at 190 nM.
In the case of `C[C@@H]1CN(c2ccc(C#N)n3nccc23)C[C@H](C(=O)NC2CCNC2)O1` (stereo partly drawn) [Example 25, (2R,6R)-4-(7-cyanopyrazolo[1,5-a]pyridin-4-yl)-6-methyl-N-pyrrolidin-3-yl-morpholine-2-carboxamide] it was 150 nM; in that of `C[C@@H]1CN(c2ccc(C#N)n3nccc23)C[C@H](C(=O)NC2CCNCC2)O1` [Example 24, (2R,6R)-4-(7-cyanopyrazolo[1,5-a]pyridin-4-yl)-6-methyl-N-(4-piperidyl)morpholine-2-carboxamide], 43 nM.
As to `C[C@@H]1CN(c2ccc(C#N)n3nccc23)C[C@H](C(=O)NC2CC3(CNC3)C2)O1` [Example 3, (2R,6R)-N-(2-azaspiro[3.3]heptan-6-yl)-4-(7-cyanopyrazolo[1,5-a]pyridin-4-yl)-6-methyl-morpholine-2-carboxamide], the IC50 came out at 160 nM.
In the case of `CCC(C)(C)NC(=O)[C@H]1CN(c2ccc(C#N)n3nccc23)C[C@@H](C)O1` [Example 17, (2R,6R)-4-(7-cyanopyrazolo[1,5-a]pyridin-4-yl)-N-(1,1-dimethylpropyl)-6-methyl-morpholine-2-carboxamide] it was 360 nM; in that of `C[C@@H]1CN(c2ccc(C#N)n3nccc23)C[C@H](C(=O)NC(C)(C)CO)O1` [Example 16, (2R,6R)-4-(7-cyanopyrazolo[1,5-a]pyridin-4-yl)-N-(2-hydroxy-1,1-dimethyl-ethyl)-6-methyl-morpholine-2-carboxamide], 460 nM.
In the case of `C[C@@H]1CN(c2ccc(C#N)n3nccc23)C[C@H](C(=O)NC2CC3COCC(C2)N3)O1` (stereo partly drawn) [Example 22, Endo-(2R,6R)-4-(7-cyanopyrazolo[1,5-a]pyridin-4-yl)-6-methyl-N-[3-oxa-9-azabicyclo[3.3.1]nonan-7-yl]morpholine-2-carboxamide] it was 10 nM.
In the case of `C[C@@H]1CN(c2ccc(C#N)n3nccc23)C[C@H](C(=O)N[C@H]2CC[C@@H](O)CC2)O1` [Example 20, Cis-(2R,6R)-4-(7-cyanopyrazolo[1,5-a]pyridin-4-yl)-N-(4-hydroxycyclohexyl)-6-methyl-morpholine-2-carboxamide] it was 350 nM.
With `C[C@@H]1CN(c2ccc(C#N)n3nccc23)C[C@H](C(=O)NC23CC(CO)(C2)C3)O1` [Example 15, (2R,6R)-4-(7-cyanopyrazolo[1,5-a]pyridin-4-yl)-N-[3-(hydroxymethyl)-1-bicyclo[1.1.1]pentanyl]-6-methyl-morpholine-2-carboxamide], the IC50 was determined as 220 nM.
Next, `C[C@@H]1CN(c2ccc(Cl)n3nccc23)C[C@H](C(=O)NC2CCN(C)CC2)O1` [Example 38, (2R,6R)-4-(7-chloropyrazolo[1,5-a]pyridin-4-yl)-6-methyl-N-(1-methyl-4-piperidyl)morpholine-2-carboxamide]: 28 nM; `C[C@@H]1CN(c2ccc(C#N)n3nccc23)C[C@H](C(=O)Nc2ccc(C(=O)N3CCNCC3)cc2)O1` [Example 42, (2R,6R)-4-(7-cyanopyrazolo[1,5-a]pyridin-4-yl)-6-methyl-N-[4-(piperazine-1-carbonyl)phenyl]morpholine-2-carboxamide]: 12 nM.
In the case of `C[C@@H]1CN(c2ccc(C#N)n3nccc23)C[C@H](C(=O)NC2CC3CCC(C2)N3)O1` (stereo partly drawn) [Example 23, Exo-(2R,6R)-N-[8-azabicyclo[3.2.1]octan-3-yl]-4-(7-cyanopyrazolo[1,5-a]pyridin-4-yl)-6-methyl-morpholine-2-carboxamide] it was 27 nM; in that of `C[C@@H]1CN(c2ccc(C#N)n3nccc23)C[C@H](C(=O)NC23CC4CC(CC(C4)C2)C3)O1` [Example 12, (2R,6R)-N-(1-adamantyl)-4-(7-cyanopyrazolo[1,5-a]pyridin-4-yl)-6-methyl-morpholine-2-carboxamide], 210 nM.
Turning to `C[C@@H]1CN(c2ccc(C#N)n3nccc23)C[C@H](C(=O)N[C@H]2CNC[C@H]2F)O1` [Example 2, (2R,6R)-4-(7-cyanopyrazolo[1,5-a]pyridin-4-yl)-N-[(3S,4R)-4-fluoropyrrolidin-3-yl]-6-methyl-morpholine-2-carboxamide], the 50% inhibitory concentration (IC50) came out at 91 nM.
Next, `COCCNC(=O)[C@H]1CN(c2ccc(C#N)n3nccc23)C[C@@H](C)O1` [Example 9, (2R,6R)-4-(7-cyanopyrazolo[1,5-a]pyridin-4-yl)-N-(2-methoxyethyl)-6-methyl-morpholine-2-carboxamide]: 650 nM.
